“Also recorded” adds a separate entry of the source. Read-outs that look alike come from different tables or passages of the source.
Legend:
Aqueous solubility test = format: physicochemical; conditions: for solubility: thermodynamic from solid
Protocol: The pH of the mixtures was held constant during the study. Excess amounts or a known amount of each component are added to 1 or 0.5 ml of buffer solution and the mixtures were stirred at rt for 48 hours or less, filtered (0.45 um Millipore) and analyzed by HPLC.

[1] = target: T1, recombinant human 17β-HSD1 (Homo sapiens, UniProt P14061); assay: Inhibition of recombinant human 17β-HSD1; format: biochemical; conditions: inhibitor 1 μM; 30 nM estrone, 1 mM NADPH, 30 min at RT; read-out: 17β-HDS1 Inhibition % at 1 μM
T1 construct: made in house; host or cells: Sd9 (Sf9) insect cells, baculovirus (Bac to Bac Expression System)
T1 sequence (P14061 1-328): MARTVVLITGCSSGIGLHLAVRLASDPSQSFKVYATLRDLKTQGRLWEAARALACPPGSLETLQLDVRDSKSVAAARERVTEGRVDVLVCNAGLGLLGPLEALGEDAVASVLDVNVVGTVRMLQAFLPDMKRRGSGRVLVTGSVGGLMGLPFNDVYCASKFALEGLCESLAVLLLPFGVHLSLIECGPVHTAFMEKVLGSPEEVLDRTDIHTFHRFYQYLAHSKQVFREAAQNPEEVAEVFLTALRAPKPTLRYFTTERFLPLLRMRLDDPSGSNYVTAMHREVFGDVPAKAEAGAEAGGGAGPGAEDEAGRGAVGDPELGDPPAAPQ
Protocol: 17β-HSD1 Production and Isolation:
Recombinant baculovirus was generated by the “Bac to Bac Expression System” (Invitrogen). Recombinant bacmid was transfected to Sd9 insect cells using “Cellfectin Reagent” (Invitrogen). 60 h later cells were harvested; the microsomal fraction was isolated as described by Puranen, T. J., Poutanen, M. H., Peltoketo, H. E., Vihko, P. T. and Vihko, R. K. (1994) Site-directed mutagenesis of the putative active site of human 17β-hydroxysteroid dehydrogenase type 1. Biochem. J. 304: 289-293. Aliquots were stored frozen until determination of enzymatic activity.
Assay—Inhibition of Recombinant Human 17β-HSD1:
Protein homogenate (0.1 μg/ml) was incubated in 20 mM KH2PO4 pH 7.4 with 30 nM estrone (including 800 000 cpm/ml of ^3H-estrone) and 1 mM NADPH for 30 min at RT, in the presence of the potential inhibitor at concentrations 1 μM or 0.1 μM. Inhibitor stock solutions were prepared in DMSO. Final concentration of DMSO was adjusted to 1% in all samples. The enzyme reaction was stopped by addition of 10% trichloroacetic acid (final concentration). Samples were centrifuged in a microtiter plate at 4000 rpm for 10 min. Supernatants were applied to reverse phase HPLC on a Waters Symmetry C18 column, equipped with a Waters Sentry Guard column. Isocratic HPLC runs were performed at RT at a flow rate of 1 ml/min in acetonitrile:water 48:52 as running solvent. Radioactivity was monitored in the eluate by a Packard Flow Scintillation Analyzer. Total radioactivity for estrone and estradiol were determined in each sample and percent conversion of estrone to estradiol was calculated according to the following formula:
(§1) [formula] Percent inhibition was calculated flowingly: % inhibition=100−% conversion

[2] = target: T2, recombinant human 17β-HSD2 (Homo sapiens, UniProt P37059); assay: Inhibition of recombinant human 17β-HSD2; format: biochemical; conditions: inhibitor 1 μM; 50 nM estradiol, 1 mM NADH, 30 min at RT
T2 construct: made in house; host or cells: Sd9 (Sf9) insect cells, baculovirus (Bac to Bac Expression System)
T2 sequence (P37059 1-387): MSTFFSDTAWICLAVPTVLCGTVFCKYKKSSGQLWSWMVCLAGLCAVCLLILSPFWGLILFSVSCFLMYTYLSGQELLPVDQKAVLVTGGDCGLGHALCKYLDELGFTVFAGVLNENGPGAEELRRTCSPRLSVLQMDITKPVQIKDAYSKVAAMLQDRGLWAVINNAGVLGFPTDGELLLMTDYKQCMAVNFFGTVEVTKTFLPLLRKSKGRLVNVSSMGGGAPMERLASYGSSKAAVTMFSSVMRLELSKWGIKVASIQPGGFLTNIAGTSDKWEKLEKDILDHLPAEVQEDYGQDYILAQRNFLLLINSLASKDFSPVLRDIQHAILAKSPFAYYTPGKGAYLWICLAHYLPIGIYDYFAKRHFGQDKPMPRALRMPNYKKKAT
Protocol: 17β-HSD2 Production and Isolation:
Similarly to 17β-HSD1 the Recombinant baculovirus was generated by the “Bac to Bac Expression System” (Invitrogen). Recombinant bacmid was transfected to Sd9 insect cells using “Cellfectin Reagent” (Invitrogen). 60 h later cells were harvested and supernatant were fractionated by the following protocol: • cells were dissolved into 40 ml of A-buffer (40 mM TRIS, pH8.0, 20% glycerol, 20 μM NAD, 0.4 mM PMSF, 150 mM NaCl, 0.5% dodecyl-β-maltoside+protease inhibitor cocktail) • cells were sonicated • lysate was incubated on ice for 15 min • lysate was centrifuged 5000 rpm 15 min, +4° C. • centrifugation of the supernatant 180 000 g 30 min, +4° C. • pellet was dissolved into 8 ml of A-buffer • not resuspended material was removed by centrifugation 5000 rpm 15 min, +4° C. • the clear supernatant was divided into 100 μl aliquots and were stored frozen until determination of enzymatic activity.
The amount of 17β-HSD2 was analysed by immunoblotting and total protein concentration of each extract batch was determined.
Assay—Inhibition of Recombinant Human 17β-HSD2:
Protein homogenate (4 μg/ml) was incubated in 20 mM KH2PO4 pH 8.5 with 50 nM estradiol (including 800 000 cpm/ml of ^3H-estradiol) and 1 mM […] for 30 min at RT, in the presence of the potential inhibitor at concentrations 1 μM or 0.1 μM. Inhibitor stock solutions were prepared in DMSO. Final concentration of DMSO was adjusted to 1% in all samples. The enzyme reaction was stopped by addition of 10% trichloroacetic acid (final concentration). Samples were centrifuged in a microtiter plate at 4000 rpm for 10 min. Supernatants were applied to reverse phase HPLC on a Waters Symmetry C18 column, equipped with a Waters Sentry Guard column. […] Radioactivity was monitored in the eluate by a Packard Flow Scintillation Analyzer. Total radioactivity for estrone and estradiol were determined in each sample and percent conversion of estradiol to estrone was calculated according to the following formula:
as §1

[3] = Metabolic stability assay; format: in vitro ADME; conditions: human liver homogenate or microsomes
Protocol: The in vitro metabolic stability of the parent compounds was determined for exemplified compounds using human liver microsome and homogenate incubations. The incubation time points used with or without appropriate cofactors were 0 min and 60 min. Samples were collected at both time points and substrates were detected using LC/PDA/TOF-MS. In vitro metabolic stability (% remaining after 60 min in human liver homogenate or microsomes) of the compounds were calculated and the results are summarized in Table 4.

| SMILES | aqueous solubility (in words) (Aqueous solubility test; Table 5) | inhibition at 1 µM [1] [%] | inhibition at 1 µM [2] [%] | In vitro metabolic stability, % remaining after 60 min [3] [%] | further results |
| --- | --- | --- | --- | --- | --- |
| CO/N=C1\C[C@@H](CCC(=O)Nc2ncc(C)s2)C2C3CCc4cc(OP(=O)([O-])[O-])c(C(C)(C)C)cc4C3CC[C@]12C.[Na+].[Na+] (stereo partly drawn) [Compound 1a] | – | – | – | – | aqueous solubility (in words) (Aqueous solubility test; Table 5, disodium salt): improved aqueous solubility; also recorded: significant aqueous solubility; Aqueous solubility, buffer at pH 7.4 (Aqueous solubility test; buffer at pH 7.4, rt): over 32 mg/ml |
| CO/N=C1\C[C@@H](CCC(=O)Nc2ncc(C)s2)C2C3CCc4cc(OCOP(=O)(O)O)c(C(C)(C)C)cc4C3CC[C@]12C (stereo partly drawn) [Compound 15, (((13S,15R)-2-(tert-butyl)-17[(E)-methoxyimino]-13-methyl-15-(3-((5-methylthiazol-2-yl)amino)-3-oxopropyl)-7,8,9,11,12,13,14,15,16,17-decahydro-6H-cyclopenta[a]phenanthren-3-yl)oxy)methyl dihydrogen phosphate] | – | – | – | – | aqueous solubility (in words) (Aqueous solubility test): significant aqueous solubility |
| CO/N=C1\C[C@@H](CCC(=O)Nc2ncc(C)s2)C2C3CCc4cc(OC(=O)CN(C)C)c(C(C)(C)C)cc4C3CC[C@]12C.Cl (stereo partly drawn) [Compound 4a, (13S,15R)-2-(tert-butyl)-17[(E)-methoxyimino]-13-methyl-15-(3-((5-methylthiazol-2-yl)amino)-3-oxopropyl)-7,8,9,11,12,13,14,15,16,17-decahydro-6H-cyclopenta[a]phenanthren-3-yl dimethylglycinate hydrochloride] | improved aqueous solubility | – | – | – | solubility (Aqueous solubility test; aqueous buffer, buffer at pH 7.4, rt, read-out: Aqueous solubility, buffer at pH 7.4): 7.99 µg/mL |
| CO/N=C1\C[C@@H](CCC(=O)Nc2ncc(C)s2)C2C3CCc4cc(OP(=O)(O)O)c(C(C)(C)C)cc4C3CC[C@]12C (stereo partly drawn) [Compound 1] | improved aqueous solubility | – | – | – | – |
| CO/N=C1\C[C@@H](CCC(=O)Nc2ncc(C)s2)C2C3CCc4cc(O)c(C(C)(C)C)cc4C3CC[C@]12C (stereo partly drawn) [VIV-1, 3-{(13S,15R)-2-tert-Butyl-3-hydroxy-17-[(E)-methoxyimino]-13-methyl-7,8,9,11,12,13,14,15,16,17-decahydro-6H-cyclopenta[a]phenanthren-15-yl}-N-(5-methylthiazol-2-yl) propanamide] | – | 86 | 14 | 100 | solubility (Aqueous solubility test; pH 7.4, aqueous buffer): < 0.52 µg/mL |
| CCO/N=C1\C[C@@H](CCC(=O)Nc2ncc(C)s2)C2C3CCc4cc(O)c(C(C)(C)C)cc4C3CC[C@]12C (stereo partly drawn) [VIV-4, 3-{(13S,15R)-2-tert-Butyl-17-[(E)-ethoxyimino]-3-hydroxyl-13-methyl-7,8,9,11,12,13,14,15,16,17-decahydro-6H-cyclopenta[a]phenanthren-15-yl}-N-(5-methylthiazol-2-yl)propanamide] | – | 89 | 8 | – | – |
| Cc1cnc(NC(=O)CC[C@@H]2CC(=O)[C@@]3(C)CCC4c5ccc(O)cc5CCC4C23)s1 (stereo partly drawn) [VII, reference compound] | – | – | – | 13 | – |
| CO/N=C1\C[C@@H](CCC(=O)Nc2ncc(C)s2)C2C3CCc4cc(OCOP(=O)(O)O)c(C(C)(C)C)cc4C3CC[C@]12C.[Na].[Na] (stereo partly drawn) [Compound 15a, (((13S,15R)-2-(tert-butyl)-17[(E)-methoxyimino]-13-methyl-15-(3-((5-methylthiazol-2-yl)amino)-3-oxopropyl)-7,8,9,11,12,13,14,15,16,17-decahydro-6H-cyclopenta[a]phenanthren-3-yl)oxy)methyl dihydrogen phosphate disodium salt] | improved aqueous solubility | – | – | – | solubility (Aqueous solubility test; buffer solution, aqueous buffer, buffer at pH 7.4, rt, read-out: Aqueous solubility, buffer at pH 7.4): > 30000 µg/mL |
| Cc1cnc(NC(=O)CC[C@@H]2C/C(=N\O)[C@@]3(C)CCC4c5cc(C(C)(C)C)c(O)cc5CCC4C23)s1 (stereo partly drawn) [VIV-3, 3-{(13S,15R)-2-tert-Butyl-3-hydroxy-17-[(E)-hydroxyimino]-13-methyl-7,8,9,11,12,13,14,15,16,17-decahydro-6H-cyclopenta[a]phenanthren-15-yl}-N-(5-methylthiazol-2-yl)propanamide] | – | 95 | 41 | 100 | – |

— US10626140B2, “Prodrugs of 17β-HSD1-inhibitors” (FORENDO PHARMA LTD, priority 2014, dated 2020)
